Assay results reported in ChEMBL document CHEMBL1201862, “PubChem BioAssay data set” (2004).
Calls of active or inactive are those of the source.

What was measured:
[1] = NIH-3T3 fibroblast cytotoxicity, dose response, cytotoxicity control, cell-based, fluorescence, Alamar Blue, secondary assay (AID 2327); assay type: functional;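 further: NIH-3T3 mouse fibroblasts cultured with fluconazole at 8 µg/mL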
Protein skinhead-1 = target: T1, Protein skinhead-1 (Caenorhabditis elegans, UniProt P34707); assay type: functional
T1 sequence (P34707 whole entry): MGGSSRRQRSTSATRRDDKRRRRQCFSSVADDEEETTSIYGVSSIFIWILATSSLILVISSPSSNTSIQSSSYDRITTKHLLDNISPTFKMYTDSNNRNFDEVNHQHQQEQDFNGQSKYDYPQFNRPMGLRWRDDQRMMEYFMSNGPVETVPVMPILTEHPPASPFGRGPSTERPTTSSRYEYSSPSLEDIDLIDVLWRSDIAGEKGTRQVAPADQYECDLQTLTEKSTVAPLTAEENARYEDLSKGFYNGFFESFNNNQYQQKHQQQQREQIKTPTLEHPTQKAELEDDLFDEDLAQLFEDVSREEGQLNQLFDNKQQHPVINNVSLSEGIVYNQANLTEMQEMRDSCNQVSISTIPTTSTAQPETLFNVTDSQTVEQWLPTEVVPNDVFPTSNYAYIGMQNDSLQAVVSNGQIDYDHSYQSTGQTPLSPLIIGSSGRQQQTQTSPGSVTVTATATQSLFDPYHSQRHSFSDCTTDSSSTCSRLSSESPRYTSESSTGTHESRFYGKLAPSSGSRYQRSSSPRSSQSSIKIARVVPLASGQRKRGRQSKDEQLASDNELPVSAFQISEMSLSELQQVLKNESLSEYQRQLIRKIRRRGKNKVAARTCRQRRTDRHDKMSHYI

[2] = target: T2, Replicative DNA helicase DnaB (Mycobacterium tuberculosis, UniProt P9WMR3); assay: DnaB intein splicing inhibitors, dose response, biochemical, cell-free fluorescence (AID 449749); assay type: functional
T2 sequence (P9WMR3 whole entry): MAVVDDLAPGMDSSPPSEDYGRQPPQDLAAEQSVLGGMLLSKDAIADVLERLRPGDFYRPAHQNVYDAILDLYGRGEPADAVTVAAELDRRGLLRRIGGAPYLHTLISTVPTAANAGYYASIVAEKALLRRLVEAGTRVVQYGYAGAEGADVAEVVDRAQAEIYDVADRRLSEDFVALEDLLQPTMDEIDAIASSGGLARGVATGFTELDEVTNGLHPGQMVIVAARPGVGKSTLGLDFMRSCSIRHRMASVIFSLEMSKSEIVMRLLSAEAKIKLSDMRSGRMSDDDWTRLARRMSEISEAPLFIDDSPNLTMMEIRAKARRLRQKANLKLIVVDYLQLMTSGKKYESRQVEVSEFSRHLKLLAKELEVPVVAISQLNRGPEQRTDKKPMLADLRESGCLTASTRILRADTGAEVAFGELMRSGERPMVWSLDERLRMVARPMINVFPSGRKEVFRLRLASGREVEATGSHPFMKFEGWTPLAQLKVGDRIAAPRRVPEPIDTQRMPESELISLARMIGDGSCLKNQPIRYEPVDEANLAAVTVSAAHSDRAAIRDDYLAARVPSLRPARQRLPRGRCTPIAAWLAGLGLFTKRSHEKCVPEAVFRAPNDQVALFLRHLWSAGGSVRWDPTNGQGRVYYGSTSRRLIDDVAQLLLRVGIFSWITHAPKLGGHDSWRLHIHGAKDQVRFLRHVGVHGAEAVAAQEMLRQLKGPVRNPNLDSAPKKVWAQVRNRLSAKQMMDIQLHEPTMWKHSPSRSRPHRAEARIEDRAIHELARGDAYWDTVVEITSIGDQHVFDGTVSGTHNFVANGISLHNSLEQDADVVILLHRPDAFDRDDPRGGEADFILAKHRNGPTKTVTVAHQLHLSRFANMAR

Protein RecA = target: T3, Protein RecA (Mycobacterium tuberculosis, UniProt P9WHJ3); assay: Fluorescence Cell-Free Homogeneous Dose Retest to Identify Inhibitors of RecA-Intein Splicing Activity. [Related pubchem assays (depositor defined):AID2097, AID2223, AID489010, AID492950]; assay type: functional
T3 sequence (P9WHJ3 whole entry): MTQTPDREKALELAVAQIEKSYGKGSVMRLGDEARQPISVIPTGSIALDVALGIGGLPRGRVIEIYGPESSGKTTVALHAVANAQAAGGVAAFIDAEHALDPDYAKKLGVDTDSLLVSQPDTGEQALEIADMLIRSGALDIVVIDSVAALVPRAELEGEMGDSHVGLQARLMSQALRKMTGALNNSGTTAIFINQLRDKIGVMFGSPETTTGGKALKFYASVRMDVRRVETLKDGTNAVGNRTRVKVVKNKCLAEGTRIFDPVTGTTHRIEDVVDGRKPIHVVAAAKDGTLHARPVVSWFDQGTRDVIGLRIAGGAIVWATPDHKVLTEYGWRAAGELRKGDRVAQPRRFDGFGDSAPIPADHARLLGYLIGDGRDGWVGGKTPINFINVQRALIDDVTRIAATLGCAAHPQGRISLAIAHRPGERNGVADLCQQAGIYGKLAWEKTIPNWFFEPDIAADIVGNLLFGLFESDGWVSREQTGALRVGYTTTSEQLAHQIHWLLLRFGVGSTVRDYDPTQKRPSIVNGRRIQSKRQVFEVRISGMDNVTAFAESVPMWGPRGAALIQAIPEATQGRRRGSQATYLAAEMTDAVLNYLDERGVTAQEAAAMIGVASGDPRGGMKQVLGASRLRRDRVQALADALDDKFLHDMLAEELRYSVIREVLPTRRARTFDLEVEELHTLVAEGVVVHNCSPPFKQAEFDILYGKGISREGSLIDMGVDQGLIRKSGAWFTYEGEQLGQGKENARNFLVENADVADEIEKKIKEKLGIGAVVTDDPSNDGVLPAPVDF

[3] = Luminescence Cell-Based Dose Retest to Confirm Inhibitors of Cancer Stem Cells. [Related pubchem assays (depositor defined):AID2717, AID2721]; assay type: functional; conditions: Homo sapiens
Cytochrome P450 3A4 = Cytochrome P450 3A4 (Homo sapiens, UniProt P08684);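 further: CYP3A4 tested as one member of a cytochrome P450 panel screen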
Sequence of Cytochrome P450 3A4 (P08684 whole entry): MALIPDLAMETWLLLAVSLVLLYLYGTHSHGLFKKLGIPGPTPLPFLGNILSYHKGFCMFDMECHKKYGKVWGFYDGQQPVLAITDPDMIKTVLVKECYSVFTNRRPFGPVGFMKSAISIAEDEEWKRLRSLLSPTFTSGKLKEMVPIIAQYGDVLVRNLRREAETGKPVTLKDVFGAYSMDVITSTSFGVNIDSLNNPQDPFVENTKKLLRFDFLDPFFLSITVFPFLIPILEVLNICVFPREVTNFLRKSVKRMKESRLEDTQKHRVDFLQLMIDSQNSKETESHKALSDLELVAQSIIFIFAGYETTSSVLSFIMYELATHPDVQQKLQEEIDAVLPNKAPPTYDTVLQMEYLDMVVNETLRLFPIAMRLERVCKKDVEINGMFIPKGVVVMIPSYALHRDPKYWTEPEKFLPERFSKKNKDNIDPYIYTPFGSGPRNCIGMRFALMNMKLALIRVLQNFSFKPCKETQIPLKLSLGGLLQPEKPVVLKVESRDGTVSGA

Cytochrome P450 2C9 = Cytochrome P450 2C9 (Homo sapiens, UniProt P11712)
Sequence of Cytochrome P450 2C9 (P11712 whole entry): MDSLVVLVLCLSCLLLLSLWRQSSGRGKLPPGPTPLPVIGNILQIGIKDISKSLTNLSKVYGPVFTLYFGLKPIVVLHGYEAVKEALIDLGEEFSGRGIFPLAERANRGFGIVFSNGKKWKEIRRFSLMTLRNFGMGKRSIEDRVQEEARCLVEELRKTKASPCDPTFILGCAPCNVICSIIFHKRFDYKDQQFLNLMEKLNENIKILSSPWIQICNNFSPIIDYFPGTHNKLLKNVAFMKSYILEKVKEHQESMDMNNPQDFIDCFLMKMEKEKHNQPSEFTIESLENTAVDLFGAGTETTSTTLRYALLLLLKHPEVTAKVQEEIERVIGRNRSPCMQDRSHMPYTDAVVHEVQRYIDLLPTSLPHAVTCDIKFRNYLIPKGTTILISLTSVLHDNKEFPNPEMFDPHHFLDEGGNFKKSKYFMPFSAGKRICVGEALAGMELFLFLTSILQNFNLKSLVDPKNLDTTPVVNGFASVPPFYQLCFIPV

[4] = C. albicans growth with fluconazole, confirmation, fluorescence, retest (AID 2467); assay type: functional, cell-based
[5] = target: T4, Corticotropin-releasing factor receptor 2/Corticotropin-releasing factor-binding protein (Homo sapiens, UniProt P24387+Q13324); assay: activators of CRF receptor 2 with binding protein – uHTS hits, confirmation (AID 602473); assay type: functional; conditions: read-out: EC50_Mean
T4 sequence (Q13324 whole entry): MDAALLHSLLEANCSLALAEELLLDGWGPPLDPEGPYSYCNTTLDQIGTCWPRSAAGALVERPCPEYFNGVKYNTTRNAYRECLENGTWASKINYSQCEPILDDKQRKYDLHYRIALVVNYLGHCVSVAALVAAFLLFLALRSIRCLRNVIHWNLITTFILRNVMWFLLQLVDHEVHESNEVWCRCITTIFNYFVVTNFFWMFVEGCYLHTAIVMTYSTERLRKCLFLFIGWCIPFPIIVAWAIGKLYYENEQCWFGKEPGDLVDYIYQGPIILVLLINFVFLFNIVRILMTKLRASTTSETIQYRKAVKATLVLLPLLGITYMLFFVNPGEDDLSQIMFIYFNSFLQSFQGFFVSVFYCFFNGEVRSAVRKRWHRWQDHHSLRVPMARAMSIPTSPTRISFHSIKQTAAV
T4 sequence (P24387 whole entry): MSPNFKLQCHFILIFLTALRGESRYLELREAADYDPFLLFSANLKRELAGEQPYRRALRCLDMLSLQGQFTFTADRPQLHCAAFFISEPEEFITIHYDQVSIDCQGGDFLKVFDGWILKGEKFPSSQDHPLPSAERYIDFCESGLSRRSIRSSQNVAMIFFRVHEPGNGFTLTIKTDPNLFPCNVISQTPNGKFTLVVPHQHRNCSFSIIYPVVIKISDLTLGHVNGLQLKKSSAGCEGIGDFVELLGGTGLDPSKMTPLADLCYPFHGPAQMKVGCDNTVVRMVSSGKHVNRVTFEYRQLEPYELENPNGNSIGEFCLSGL

[6] = target: T4, Corticotropin-releasing factor receptor 2/Corticotropin-releasing factor-binding protein; assay: Dose Response confirmation of uHTS hits for small molecule antagonists of the CRF-binding protein and CRF-R2 receptor complex.; assay type: functional; conditions: read-out: IC50_Mean
[7] = P. falciparum Dd2 growth inhibitors, dose response, SYBR Green, cherry-picked samples (AID 1159567); assay type: functional, cell-based

Cn1c(SCC(=O)N2CCCc3ccccc32)nnc1-c1ccccc1
EC50 [1]: > 160 µM (inactive)

Cc1nc(-c2cccc(NC(=O)c3ccco3)c2)cs1
IC50 (Protein skinhead-1): > 100 µM (inactive)

Cc1cc(-c2ccccc2)nc2cc(C(=O)N(Cc3ccccc3)Cc3ccccc3)nn12
AC50 [2]: > 120 µM (inactive) | EC50 (Protein RecA): > 380 µM (inactive) | AC50 [3]: 4.86 µM (active)

Clc1ccc(-c2cc(CSc3ccccc3)on2)cc1
IC50 (Protein skinhead-1): 20 µM (active)

COc1ccc(C(C(=O)NC2CCCC2)N(C(=O)c2snc(-c3ccc(F)cc3)c2N)c2ccc(F)cc2)cc1 (centres undefined)
AC50 (Cytochrome P450 3A4): 12.6 µM (inconclusive) | IC50 (Protein skinhead-1): > 100 µM (inactive) | AC50 (Cytochrome P450 2C9): 1.78 µM (inconclusive)

CCCOc1ccc(C(=O)C2=C(O)C(=O)N(c3cc(C)on3)C2c2ccc(C(=O)OC)cc2)cc1 (centres undefined)
IC50 (Protein skinhead-1): > 100 µM (inactive)

CCOCCCNC(=O)c1ccc(N(C)S(=O)(=O)c2ccc(OC)cc2)cc1
EC50 [4]: > 38 µM (not active) | EC50 [1]: > 160 µM (inactive)

CCCc1cc2nnc(SCC(=O)N(C)C3CCCCC3)n2c(N)n1
IC50 (Protein skinhead-1): > 100 µM (inactive)

CSc1ccc(CCNC(=O)c2ccc(C[S+]([O-])Cc3ccc(Cl)cc3)o2)cc1 (centres undefined)
EC50 [5]: > 53 µM (inactive) | IC50 [6]: > 47.1 µM (inactive)

CC(C)CSc1nnc2[nH]c(=O)cc(N)n12
EC50 [5]: > 53 µM (inactive) | IC50 [6]: > 47.1 µM (inactive)

CCOC(=O)c1sc(NC(=O)CN(CC(C)C)CC(C)C)c(C(=O)OCC)c1C
EC50 [5]: > 53 µM (inactive) | IC50 [6]: > 47.1 µM (inactive)

COc1cc2c(cc1OC)C(/C=C(\O)c1ccc(OC)c([N+](=O)[O-])c1)=NCC2
EC50 [5]: > 53 µM (inactive) | IC50 [6]: > 47.1 µM (inactive)

N#CC1=C(N)N(c2ccccc2)C(c2ccccc2)C1(C#N)C#N (centres undefined)
AC50 [2]: 7.51 µM (active) | EC50 (Protein RecA): 11.6 µM (active)

CSc1ccc(/C=C(/NC(=O)c2ccc(C)cc2)C(=O)Nc2cccc(F)c2)cc1
EC50 [5]: > 53 µM (inactive) | IC50 [6]: > 47.1 µM (inactive)

CC(C)(C)c1ccc(C2=CSC3=NCCN23)cc1
IC50 (Protein skinhead-1): > 100 µM (inactive)

Cc1cc2cc(CNC(=O)c3cccc([N+](=O)[O-])c3)ccc2n1C
IC50 (Protein skinhead-1): > 100 µM (inactive)

COC(=O)c1ccc(C(=O)OC)c(-n2c(=O)c3ccccc3c3ccccc3c2=O)c1
AC50 [2]: 8.61 µM (active) | EC50 (Protein RecA): 18.5 µM (active)

CCC(C)Nc1nc(Cl)nc(N(C#N)CN2C(=O)c3ccccc3S2(=O)=O)n1 (centres undefined)
AC50 [2]: 14 µM (active) | EC50 (Protein RecA): 18.2 µM (active)

CCCNC(=O)c1ccc2c(O)c(O)c(-c3ccc(OC)cc3)nc2c1
EC50 [4]: > 38 µM (not active) | EC50 [1]: > 150 µM (inactive)

CN(CC(=O)Nc1ccc2c(c1)OCCO2)CC(=O)Nc1ccc(F)c(F)c1F
EC50 [5]: > 53 µM (inactive) | IC50 [6]: > 47.1 µM (inactive)

COc1ccc(CC(=O)O/N=C(\N)Cc2cccc3ccccc23)cc1OC
AC50 [2]: 73.3 µM (active) | EC50 (Protein RecA): 18.2 µM (active)

CCOC(=O)Cn1c(=O)oc2cc(S(=O)(=O)NC(C)(C)CC)ccc21
EC50 [5]: > 53 µM (inactive) | IC50 [6]: > 47.1 µM (inactive)

O=C(Oc1ccc(N2C(=O)C3C4CCC(C4)C3C2=O)cc1)c1ccco1 (centres undefined)
AC50 [2]: 28.2 µM (active) | EC50 (Protein RecA): 13 µM (active)

CC(=O)N1CCOc2cc(S(=O)(=O)N3CCN(c4ccccc4)CC3)c(Cl)cc21
EC50 [5]: > 53 µM (inactive) | IC50 [6]: > 47.1 µM (inactive)

N#Cc1ccccc1OCC(O)CS(=O)(=O)c1ccccc1 (centres undefined)
IC50 (Protein skinhead-1): > 100 µM (inactive)

CC(=O)Nc1ccc2c(c1)Cc1c-2cc(Br)c(N)c1Br
IC50 (Protein skinhead-1): > 100 µM (inactive)

COc1ccc(-c2ccc(/C=N/NC(=O)Cc3nnc(N)s3)o2)cc1Cl
EC50 [5]: > 53 µM (inactive) | IC50 [6]: > 47.1 µM (inactive)

COc1ccc(/C=N/OCC(=O)Nc2nc3ccccc3s2)cc1
EC50 [4]: 4.97 µM (active) | EC50 [1]: > 150 µM (inactive)

COc1ccc(NC(=O)N(C)C[C@H]2Oc3cc(-c4ccc(C)cc4)ccc3S(=O)(=O)N([C@H](C)CO)C[C@@H]2C)cc1
AC50 [7]: 4.83 µM (active)

C[C@H](CO)N1C[C@H](C)[C@@H](CN(C)C(=O)Nc2cccc3ccccc23)Oc2ccc(NC(=O)Nc3cccc4ccccc34)cc2CC1=O
AC50 [7]: 5.57 µM (active)

C[C@H](CO)N1C[C@H](C)[C@H](CN(C)CC2CC2)Oc2cc(-c3cccc(C#N)c3)ccc2S1(=O)=O
AC50 [7]: 3.61 µM (active)

COc1ccc(C#Cc2ccc([C@H]3[C@H]4CN(C(=O)c5ccc(F)cc5)CC(=O)N4[C@H]3CO)cc2)cc1
AC50 [7]: 6.95 µM (active)

CCCC#Cc1ccc2c(c1)O[C@H](CN(C)C(=O)c1ccccc1F)[C@@H](C)CN([C@H](C)CO)S2(=O)=O
AC50 [7]: 4.94 µM (active)
